These results are taken from patent US5914244A, “UL97 fusion proteins and methods of use” (priority 1997, dated 1999).

Read-outs that look alike come from different tables or passages of the source. Some results are limits rather than exact numbers.

For test [1], the target named is T1, GST-UL97 fusion protein (glutathione-S-transferase fused to wild-type UL97 protein kinase of CMV strain AD169) (Human cytomegalovirus, UniProt P16788).
T1 construct: degradation products of the full length GST-UL97 fusion proteins; made in house; host or cells: Spodoptera frugiperda Sf21 cells infected with recombinant baculovirus BVGSTUL97
Nature of the test: biochemical. The class given is biochemical. The conditions noted are these: for inhibition at 10 µM: read-out: reduction / inhibition of histone phosphorylation. How it is done: (§1) Protein samples were added to 20 μl of reaction buffer containing 50 mM Tris HCl pH 9.0, 10 mM MgCl2, 5 μM ATP, 2 mM DTT, 1 M NaCl and 5 μCi γ^32 P-ATP (unless otherwise stated). After incubation at 37° C. for 30 min (unless otherwise stated), the reactions were terminated by addition of 20 μl of 2× Laemmli sample buffer to the sample and boiling for 3 min. Phosphorylated proteins were resolved by electrophoresis on 10% SDS-PAGE gels and detected by autoradiography. In order to quantitate the level of phosphorylation, the region of the gel corresponding to the labelled protein was excised and the Cerenkov radioactivity was counted. For assay of extracts of insect cells infected with BVUL97 and related recombinant viruses, 2×10^7 infected or mock-infected cells were broken by sonication in 1 ml of ice-cold lysis buffer B (50 mM Tris-HCl pH 7.6, 100 mM NaCl, 5 mM MgCl2, 0.1% NP-40, 10% glycerol, […] and 1 mM PMSF). Insoluble material was removed by centrifugation at 12,000×g for 5 minutes.
Exogenous UL97 substrates identified in the substrate assay are used to detect agents which affect UL97 protein kinase activity. […] In a typical reaction, 0.8 μg/μl histone was dissolved in 20 μl reaction buffer, and the reaction was initiated by addition of 1.9 ng/μl GST-UL97. Following a 30 min incubation at 37° C., the reaction was terminated by the addition of 2× Laemmli sample buffer to the sample and boiling for 3 min. Proteins were separated on 15% SDS-PAGE gels, and phosphorylation was detected by autoradiography.
In this assay, an agent which may be an inhibitor or an activator of UL97 is added to the phosphorylation reaction, and the reaction is allowed to proceed. The amount of phosphorylation is then measured, to see if the agent increases or decreases UL97-mediated histone phosphorylation.

Test [2] deals with T1, GST-UL97 fusion protein (glutathione-S-transferase fused to wild-type UL97 protein kinase of CMV strain AD169). Nature of the test: GST-UL97 autophosphorylation protein kinase assay (Km by Lineweaver-Burk plot). The class given is biochemical. How it is done: as §1
The Michaelis or apparent dissociation constant (Km) for GST-UL97 was determined using a Lineweaver-Burk plot. Kinase reactions (enzyme concentration, 4.7 ng/μl) were carried out in 200 μl standard assay buffer. […] Radiolabelled GST-UL97 was separated on 10% SDS-PAGE gels and quantified by Cerenkov count. […]

T1 sequence (P16788 whole entry, the tested form may be a part): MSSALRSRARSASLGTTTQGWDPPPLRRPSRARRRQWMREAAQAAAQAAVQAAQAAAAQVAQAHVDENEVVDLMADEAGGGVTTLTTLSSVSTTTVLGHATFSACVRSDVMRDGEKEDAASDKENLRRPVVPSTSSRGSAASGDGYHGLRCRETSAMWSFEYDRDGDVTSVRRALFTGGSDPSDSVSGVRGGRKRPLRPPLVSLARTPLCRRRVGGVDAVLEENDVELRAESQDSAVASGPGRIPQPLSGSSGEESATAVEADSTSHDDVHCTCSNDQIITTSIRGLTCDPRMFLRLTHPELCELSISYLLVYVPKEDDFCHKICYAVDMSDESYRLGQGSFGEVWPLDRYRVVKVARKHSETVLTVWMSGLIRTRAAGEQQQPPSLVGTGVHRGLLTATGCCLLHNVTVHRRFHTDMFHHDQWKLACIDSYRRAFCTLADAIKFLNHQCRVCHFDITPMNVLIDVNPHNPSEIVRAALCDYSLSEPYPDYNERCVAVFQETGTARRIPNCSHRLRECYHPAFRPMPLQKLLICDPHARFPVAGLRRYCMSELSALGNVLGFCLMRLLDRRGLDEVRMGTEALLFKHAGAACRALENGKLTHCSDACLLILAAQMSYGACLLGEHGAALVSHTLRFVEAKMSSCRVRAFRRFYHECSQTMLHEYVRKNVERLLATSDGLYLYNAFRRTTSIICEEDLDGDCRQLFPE

As for `Nc1ncnc2c1ncn2[C@@H]1O[C@H](COP(=O)(O)OP(=O)(O)O)[C@@H](O)[C@H]1O` [ADP], in test [1] (addition at 5 μM, histone phosphorylation, none = 100), the activity at 5 µM stood at 166%. For the same compound, the “effect on UL97 protein kinase activity (in words)” value in test [1] (histone phosphorylation, ADP at 5 μM) is on record as “stimulatory effect”.

One may read the Km as the concentration of substrate that gives half-maximal velocity. Take `Nc1ncnc2c1ncn2[C@@H]1O[C@H](COP(=O)(O)OP(=O)(O)OP(=O)(O)O)[C@@H](O)[C@H]1O` [ATP]: the Km in test [2] (optimal divalent cation concentration, enzyme 4.7 ng/μl, read-out: Km determined for ATP as substrate) was 2 ± 0.5 µM.

In the case of `Nc1nc2c(ncn2[C@@H]2O[C@H](COP(=O)(O)OP(=O)(O)OP(=O)(O)O)[C@@H](O)[C@H]2O)c(=O)[nH]1` [GTP], the Km in test [2] (10 mM Mg2+, read-out: Km for GTP as a phosphate donor) is 4 µM.

As for `Nc1nc2c(ncn2[C@@H]2O[C@H](CO)[C@@H](O)[C@H]2O)c(=O)[nH]1` [Guanosine], the activity at 10 µM in test [1] turned out to be 125%. Also, the “effect on GST-UL97 kinase activity (in words)” value in test [1] (histone phosphorylation, cAMP 5 μM, guanosine 10 μM (Table 2)) was “Neither cAMP nor guanosine showed an inhibitory effect”.

On to `O=c1c(O)c(-c2ccc(O)c(O)c2)oc2cc(O)cc(O)c12` [Quercetin], for which the activity at 10 µM in test [1] (addition at 10 μM, histone phosphorylation, none = 100, read-out: Activity (%)) is 28%. Besides, in test [1] (agent at 10 μM), the inhibition at 10 µM was more than 70%.

Consider `N#CC(C#N)=Cc1ccc(O)c(O)c1` [Tyrphostin 23], for which, in test [1], the activity at 10 µM stood at 27% and the inhibition at 10 µM was determined as 73%.

With `NCCCNCCCCNCCCN` [spermine], the activity at 100 µM in test [1] was 163%. Also, in test [1] (0.1 mM spermine), the “effect on UL97-mediated phosphorylation of histone (in words)” value is “enhanced”.
